Source: ChEMBL document CHEMBL3621105, “Synthesis and evaluation of a bis-3-chloropiperidine derivative incorporating an anthraquinone pharmacophore” (Bioorg Med Chem Lett, 2015)
Activity calls are given as the source filed them. The rule behind the calls is not given here.

What was measured:
[1] = Induction of alkylation of 5'-FAM-labelled scrambled duplex oligonucleotide DNA (unknown origin) at guanine residues G1 to G4 after 24 hrs by sequencing gel analysis
[2] = Induction of alkylation of 5'-FAM-labelled scrambled duplex oligonucleotide DNA (unknown origin) at guanine residues G1 to G4 at 50 uM after 24 hrs by sequencing gel analysis
Escherichia coli [3] = assay: Induction of Escherichia coli supercoiled pBR322 DNA cleavage at 50 uM after 24 hrs at 25 degC by agarose gel electrophoresis
Escherichia coli [4] = assay: Induction of Escherichia coli supercoiled pBR322 DNA cleavage assessed as formation of open circular form of DNA after 24 hrs at 25 degC by agarose gel electrophoresis
Escherichia coli [5] = assay: Induction of Escherichia coli supercoiled pBR322 DNA cleavage assessed as formation of linear form of DNA at 0.5 to 50 uM after 24 hrs at 25 degC by agarose gel electrophoresis
[6] = Induction of alkylation of 5'-FAM-labelled scrambled duplex oligonucleotide DNA (unknown origin) at guanine residues G1 to G4 at 5 to 50 uM after 24 hrs by sequencing gel analysis

For `COc1ccc(OC(=O)[C@H](CCCCN2CC(Cl)CC(C)(C)C2)N2CC(Cl)CC(C)(C)C2)c2ccccc12` (some centres not stated), the Activity [1] was “Dose-dependent effect”.
With `O=C(O)CCCc1ccc(N(CCCl)CCCl)cc1` the Activity [2] was “inactive” and the Activity (Escherichia coli [3]) was “inactive”.
In the case of `CC1(C)CC(Cl)CN(CCCC[C@@H](C(=O)OCc2ccc3c(c2)C(=O)c2ccccc2C3=O)N2CC(Cl)CC(C)(C)C2)C1` (some centres not stated), the Activity (Escherichia coli [4]) is reported as “Dose-dependent effect”, the Activity (Escherichia coli [5]) is reported as “inactive” and the Activity [6] is reported as “Active”.
In the case of `CC1(C)CC(Cl)CN(CCCC[C@@H](C(=O)Oc2cccc3ccccc23)N2CC(Cl)CC(C)(C)C2)C1` (some centres not stated), the Activity [1] is reported as “Dose-dependent effect”.
